Laboratory results reported in ChEMBL document CHEMBL1909046, “DrugMatrix in vitro pharmacology data”.

Assays:
[1] = DRUGMATRIX: Calcium Channel Type L, Benzothiazepine radioligand binding (ligand: [3H] Diltiazem); assay type: cell membranes, Rattus norvegicus, Wistar, Brain, Membrane; settings: Not Active = under 50% inhibition at 10 µM
[2] = target: T1, Vasoactive intestinal polypeptide receptor 1 (Homo sapiens, UniProt P32241); assay type: cell membranes, Membrane; settings: ht-29; also: in other assays of this panel Not Active means under 50% inhibition at 10 µM
T1 sequence (P32241 whole entry): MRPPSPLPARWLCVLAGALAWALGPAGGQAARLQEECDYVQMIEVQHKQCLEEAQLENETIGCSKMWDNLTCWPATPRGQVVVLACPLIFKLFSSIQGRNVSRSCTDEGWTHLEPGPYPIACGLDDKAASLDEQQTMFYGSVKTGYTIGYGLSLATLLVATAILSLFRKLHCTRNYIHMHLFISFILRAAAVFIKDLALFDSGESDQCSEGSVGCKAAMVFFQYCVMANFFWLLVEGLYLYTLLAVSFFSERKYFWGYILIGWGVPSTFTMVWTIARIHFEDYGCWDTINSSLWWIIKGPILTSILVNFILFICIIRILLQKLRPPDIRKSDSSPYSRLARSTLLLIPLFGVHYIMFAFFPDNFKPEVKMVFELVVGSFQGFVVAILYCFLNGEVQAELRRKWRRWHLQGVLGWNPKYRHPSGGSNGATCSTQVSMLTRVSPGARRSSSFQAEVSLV

[3] = target: Protein phosphatase 3 catalytic subunit alpha (Homo sapiens, UniProt Q08209); parameters: species or system Escherichia coli;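 also: inhibition of calcineurin (PP2B) enzyme activity, measured with DiFMUP as the substrate; in other assays of this panel Not Active means under 50% inhibition at 10 µM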
Neutrophil elastase = target: T2, Neutrophil elastase (Homo sapiens, UniProt P08246); assay type: tissue-based;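 also: inhibition of neutrophil elastase enzyme activity, measured with a p-nitroanilide-linked peptide substrate; in other assays of this panel Not Active means under 50% inhibition at 10 µM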
T2 sequence (P08246 whole entry): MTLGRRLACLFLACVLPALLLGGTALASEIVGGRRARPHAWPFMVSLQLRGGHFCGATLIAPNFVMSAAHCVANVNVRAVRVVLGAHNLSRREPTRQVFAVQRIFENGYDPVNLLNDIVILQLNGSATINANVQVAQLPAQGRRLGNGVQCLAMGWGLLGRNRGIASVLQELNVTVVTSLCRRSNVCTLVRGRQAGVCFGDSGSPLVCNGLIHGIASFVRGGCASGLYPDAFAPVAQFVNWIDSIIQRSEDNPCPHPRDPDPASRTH

Nitric oxide synthase 1 = Nitric oxide synthase 1 (Rattus norvegicus, UniProt P29476); assay type: tissue-based, Cerebellum; also: in other assays of this panel Not Active means under 50% inhibition at 10 µM
[4] = target: 5-hydroxytryptamine receptor 6 (Homo sapiens, UniProt P50406); assay type: cell membranes, HeLa, Membrane; settings: for Ki: read-out: Ki
[5] = DRUGMATRIX: Serotonin (5-Hydroxytryptamine) 5-HT3 radioligand binding (ligand: [3H] GR-65630); assay type: cell membranes, Membrane; settings: hek293; Not Active = under 50% inhibition at 10 µM

Chain of 5-hydroxytryptamine receptor 6 (P50406 whole entry): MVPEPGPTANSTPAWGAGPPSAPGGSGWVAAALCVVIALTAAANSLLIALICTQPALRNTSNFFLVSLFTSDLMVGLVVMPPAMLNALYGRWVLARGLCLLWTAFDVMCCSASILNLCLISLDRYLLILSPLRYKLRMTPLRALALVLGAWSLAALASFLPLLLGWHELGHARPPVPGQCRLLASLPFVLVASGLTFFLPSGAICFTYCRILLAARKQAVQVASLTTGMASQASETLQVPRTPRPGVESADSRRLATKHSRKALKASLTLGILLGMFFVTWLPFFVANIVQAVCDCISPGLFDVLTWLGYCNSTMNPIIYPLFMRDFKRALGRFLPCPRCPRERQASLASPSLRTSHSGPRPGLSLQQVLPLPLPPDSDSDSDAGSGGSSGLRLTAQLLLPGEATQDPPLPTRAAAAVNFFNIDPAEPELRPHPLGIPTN
Chain of Nitric oxide synthase 1 (P29476 whole entry): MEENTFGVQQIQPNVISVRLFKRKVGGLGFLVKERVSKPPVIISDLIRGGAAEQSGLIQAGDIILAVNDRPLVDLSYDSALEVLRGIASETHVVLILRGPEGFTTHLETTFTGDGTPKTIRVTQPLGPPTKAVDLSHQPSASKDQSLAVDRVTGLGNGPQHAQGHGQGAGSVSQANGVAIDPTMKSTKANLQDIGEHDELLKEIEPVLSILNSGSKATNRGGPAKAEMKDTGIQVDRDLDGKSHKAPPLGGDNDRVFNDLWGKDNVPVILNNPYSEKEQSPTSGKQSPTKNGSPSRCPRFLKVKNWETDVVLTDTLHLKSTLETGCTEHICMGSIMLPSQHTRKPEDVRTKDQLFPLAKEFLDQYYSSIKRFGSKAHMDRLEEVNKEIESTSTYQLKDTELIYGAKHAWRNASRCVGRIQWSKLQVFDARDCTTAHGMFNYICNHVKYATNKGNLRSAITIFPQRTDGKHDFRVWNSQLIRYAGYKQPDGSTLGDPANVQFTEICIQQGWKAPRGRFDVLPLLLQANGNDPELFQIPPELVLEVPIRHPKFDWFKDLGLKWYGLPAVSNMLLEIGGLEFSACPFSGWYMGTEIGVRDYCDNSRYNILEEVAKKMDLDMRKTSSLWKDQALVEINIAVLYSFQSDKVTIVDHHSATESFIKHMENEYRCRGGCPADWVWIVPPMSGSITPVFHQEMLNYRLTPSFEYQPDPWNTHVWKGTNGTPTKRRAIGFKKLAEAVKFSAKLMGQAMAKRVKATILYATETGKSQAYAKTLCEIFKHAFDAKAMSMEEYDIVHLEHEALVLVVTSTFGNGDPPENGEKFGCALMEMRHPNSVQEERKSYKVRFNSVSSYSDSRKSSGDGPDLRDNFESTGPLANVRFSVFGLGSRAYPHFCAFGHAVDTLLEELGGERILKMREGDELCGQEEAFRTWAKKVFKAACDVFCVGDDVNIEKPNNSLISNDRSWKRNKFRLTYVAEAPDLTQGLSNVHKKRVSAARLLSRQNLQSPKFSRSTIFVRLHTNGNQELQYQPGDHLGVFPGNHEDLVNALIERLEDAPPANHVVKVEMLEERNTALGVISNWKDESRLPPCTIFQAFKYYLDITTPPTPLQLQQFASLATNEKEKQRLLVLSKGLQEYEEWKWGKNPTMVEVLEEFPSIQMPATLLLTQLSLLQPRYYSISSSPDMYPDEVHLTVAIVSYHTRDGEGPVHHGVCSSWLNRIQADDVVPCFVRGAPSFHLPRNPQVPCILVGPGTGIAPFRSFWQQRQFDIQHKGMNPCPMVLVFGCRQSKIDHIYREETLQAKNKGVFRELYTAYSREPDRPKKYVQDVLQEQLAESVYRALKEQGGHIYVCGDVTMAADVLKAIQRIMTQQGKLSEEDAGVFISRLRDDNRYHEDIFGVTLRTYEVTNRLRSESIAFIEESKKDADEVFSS

SMILES | IC50 ([1]; read-out: IC50) [µM] | Ki ([1]; read-out: Ki) [µM] | IC50 [2] | IC50 [3] | IC50 (Neutrophil elastase) | IC50 (Nitric oxide synthase 1) | IC50 ([4]; hela) | IC50 [5] | Ki [5] | IC50 [1] | Ki [1] | IC50 ([4]; read-out: IC50) [µM] | Ki [4] [µM] | IC50 ([3]; read-out: IC50) [µM]
CC(C)(C)NC(=O)[C@@H]1C[C@@H]2CCCC[C@@H]2CN1C[C@@H](O)[C@H](Cc1ccccc1)NC(=O)[C@H](CC(N)=O)NC(=O)c1ccc2ccccc2n1 | 10.9 | 9.69 | Not Active | Not Active | Not Active | Not Active | Not Active | Not Active | Not Active |  |  |  |  | 
CC(=O)[C@@]1(O)CC[C@H]2[C@@H]3C[C@H](C)C4=CC(=O)CC[C@]4(C)[C@H]3CC[C@@]21C |  |  | Not Active | Not Active | Not Active | Not Active | Not Active | Not Active | Not Active | Not Active | Not Active |  |  | 
N[C@@H](Cc1ccc(N(CCCl)CCCl)cc1)C(=O)O |  |  | Not Active | Not Active | Not Active | Not Active | Not Active | Not Active | Not Active | Not Active | Not Active |  |  | 
CCCCc1oc2ccccc2c1C(=O)c1cc(I)c(OCCN(CC)CC)c(I)c1 [AMIODARONE] |  |  | Not Active | Not Active | Not Active | Not Active |  |  |  |  |  | 19.4 | 9.03 | 
OCCN(CCO)c1nc(N2CCCCC2)c2nc(N(CCO)CCO)nc(N3CCCCC3)c2n1 [DIPYRIDAMOLE] |  |  | Not Active | Not Active | Not Active | Not Active | Not Active | Not Active | Not Active | Not Active | Not Active |  |  | 
Cc1oncc1C(=O)Nc1ccc(C(F)(F)F)cc1 [LEFLUNOMIDE] |  |  | Not Active | Not Active | Not Active | Not Active | Not Active | Not Active | Not Active | Not Active | Not Active |  |  | 
c1ccc([C@H]2CN3CCSC3=N2)cc1 [LEVAMISOLE] |  |  | Not Active | Not Active | Not Active | Not Active | Not Active | Not Active | Not Active | Not Active | Not Active |  |  | 
N[C@@H](Cc1ccc(O)c(O)c1)C(=O)O [LEVODOPA] |  |  | Not Active | Not Active | Not Active | Not Active | Not Active | Not Active | Not Active | Not Active | Not Active |  |  | 
N[C@@H](Cc1cc(I)c(Oc2ccc(O)c(I)c2)c(I)c1)C(=O)O [LIOTHYRONINE] |  |  | Not Active | Not Active | Not Active | Not Active | Not Active |  |  |  |  |  |  | 
O=NN(CCCl)C(=O)NC1CCCCC1 [LOMUSTINE] |  |  | Not Active | Not Active | Not Active | Not Active | Not Active | Not Active | Not Active | Not Active | Not Active |  |  | 
CCOC(=O)N1CCC(=C2c3ccc(Cl)cc3CCc3cccnc32)CC1 [LORATADINE] |  |  | Not Active | Not Active | Not Active | Not Active | Not Active | Not Active | Not Active | Not Active | Not Active |  |  | 
Cn1ccnc1S [METHIMAZOLE] |  |  | Not Active | Not Active | Not Active | Not Active | Not Active | Not Active | Not Active | Not Active | Not Active |  |  | 
CC[C@@H](CO)NC(=O)[C@@H]1C=C2c3cccc4[nH]cc(c34)C[C@H]2N(C)C1 [METHYLERGONOVINE] |  |  | Not Active | Not Active | Not Active | Not Active |  |  |  | Not Active | Not Active | 0.00254 | 0.00118 | 
COc1nc(C)nc(Cl)c1NC1=NCCN1 [MOXONIDINE] |  |  | Not Active | Not Active | Not Active | Not Active | Not Active | Not Active | Not Active | Not Active | Not Active |  |  | 
COc1c(C)c2c(c(O)c1C/C=C(\C)CCC(=O)O)C(=O)OC2 [MYCOPHENOLIC ACID] |  |  | Not Active | Not Active | Not Active | Not Active | Not Active | Not Active | Not Active | Not Active | Not Active |  |  | 
O=c1ncn2nc(Sc3ccc(F)cc3F)ccc2c1-c1c(Cl)cccc1Cl [NEFLAMAPIMOD] |  |  | Not Active | Not Active | Not Active | Not Active | Not Active | Not Active | Not Active | Not Active | Not Active |  |  | 
CN1CCN(CCCN2c3ccccc3Sc3ccc(Cl)cc32)CC1 [PROCHLORPERAZINE] |  |  | Not Active | Not Active | Not Active | Not Active |  |  |  |  |  | 0.267 | 0.124 | 
CO[C@H]1/C=C/O[C@@]2(C)Oc3c(C)c(O)c4c(O)c(c(/C=N/N5CCN(C)CC5)c(O)c4c3C2=O)NC(=O)/C(C)=C\C=C\[C@H](C)[C@H](O)[C@@H](C)[C@@H](O)[C@@H](C)[C@H](OC(C)=O)[C@@H]1C [RIFAMPIN] |  |  | Not Active | Not Active | Not Active | Not Active | Not Active | Not Active | Not Active | Not Active | Not Active |  |  | 
Nc1nc2ccc(OC(F)(F)F)cc2s1 [RILUZOLE] |  |  | Not Active | Not Active | Not Active | Not Active | Not Active | Not Active | Not Active | Not Active | Not Active |  |  | 
Cc1nc2n(c(=O)c1CCN1CCC(c3noc4cc(F)ccc34)CC1)CCCC2 [RISPERIDONE] |  |  | Not Active | Not Active | Not Active | Not Active | Not Active |  |  |  |  |  |  | 
C=CCC1(C(C)CCC)C(=O)NC(=O)NC1=O (stereo not drawn) [SECOBARBITAL] |  |  | Not Active | Not Active | Not Active | Not Active | Not Active | Not Active | Not Active | Not Active | Not Active |  |  | 
C[C@@H]1CN(c2c(F)c(N)c3c(=O)c(C(=O)O)cn(C4CC4)c3c2F)C[C@H](C)N1 [SPARFLOXACIN] |  |  | Not Active | Not Active | Not Active | Not Active | Not Active | Not Active | Not Active | Not Active | Not Active |  |  | 
Cc1noc(NS(=O)(=O)c2ccc(N)cc2)c1C [SULFISOXAZOLE] |  |  | Not Active | Not Active | Not Active | Not Active | Not Active | Not Active | Not Active | Not Active | Not Active |  |  | 
CSc1ccc(/C=C2/C(C)=C(CC(=O)O)c3cc(F)ccc32)cc1 [SULINDAC SULFIDE] |  |  | Not Active | Not Active | Not Active | Not Active | Not Active | Not Active | Not Active | Not Active | Not Active |  |  | 
Nc1c2c(nc3ccccc13)CCCC2 [TACRINE] |  |  | Not Active | Not Active | Not Active | Not Active | Not Active | Not Active | Not Active | Not Active | Not Active |  |  | 
CC/C(=C(\c1ccccc1)c1ccc(OCCN(C)C)cc1)c1ccccc1 [TAMOXIFEN] |  |  | Not Active |  | Not Active | Not Active |  |  |  |  |  | 2.68 | 1.24 | 30.6
CC(C)N1CCN(c2ccc(OCC3COC(Cn4cncn4)(c4ccc(Cl)cc4Cl)O3)cc2)CC1 (stereo not drawn) [TERCONAZOLE] | 3.01 | 2.67 | Not Active | Not Active | Not Active | Not Active | Not Active | Not Active | Not Active |  |  |  |  | 
Nc1nc2nc[nH]c2c(=S)[nH]1 [THIOGUANINE] |  |  | Not Active | Not Active | Not Active | Not Active | Not Active | Not Active | Not Active | Not Active | Not Active |  |  | 
Cc1cccc(N(C)C(=S)Oc2ccc3ccccc3c2)c1 [TOLNAFTATE] |  |  | Not Active | Not Active | Not Active | Not Active | Not Active | Not Active | Not Active | Not Active | Not Active |  |  | 
